Source: patent publication US20050197338A1, “Substituted pyrazole urea compounds for the treatment of inflammation” (priority 2003, published 2005)
pIC50: −log10 of the molar value.

Molecular target: T1, human IKK-2 (rhIKK-2 homodimer) (Homo sapiens, UniProt O14920)
T1 construct: FLAG (DYKDDDDKD) (C); made in house; host or cells: insect cells (baculovirus, pFastBac)
T1 sequence (O14920 1-756): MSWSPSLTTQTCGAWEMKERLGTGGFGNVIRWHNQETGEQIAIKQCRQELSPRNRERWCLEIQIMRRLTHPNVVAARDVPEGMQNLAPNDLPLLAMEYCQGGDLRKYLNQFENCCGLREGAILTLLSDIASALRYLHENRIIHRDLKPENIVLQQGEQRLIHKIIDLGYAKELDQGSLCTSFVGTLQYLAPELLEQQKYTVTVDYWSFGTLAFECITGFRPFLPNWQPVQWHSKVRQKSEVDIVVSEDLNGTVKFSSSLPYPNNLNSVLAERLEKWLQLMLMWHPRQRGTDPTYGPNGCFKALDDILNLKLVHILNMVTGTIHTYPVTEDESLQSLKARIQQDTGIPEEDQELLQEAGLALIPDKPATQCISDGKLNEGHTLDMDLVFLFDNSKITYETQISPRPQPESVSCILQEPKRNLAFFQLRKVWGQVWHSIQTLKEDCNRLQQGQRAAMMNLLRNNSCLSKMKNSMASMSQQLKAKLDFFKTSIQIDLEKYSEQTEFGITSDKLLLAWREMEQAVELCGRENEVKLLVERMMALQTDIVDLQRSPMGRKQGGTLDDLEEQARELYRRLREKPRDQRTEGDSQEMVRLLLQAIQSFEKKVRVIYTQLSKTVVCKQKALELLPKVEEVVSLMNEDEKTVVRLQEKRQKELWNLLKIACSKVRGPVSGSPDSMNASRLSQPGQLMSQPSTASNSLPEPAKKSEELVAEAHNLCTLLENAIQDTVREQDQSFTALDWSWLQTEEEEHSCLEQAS
Test: IKK-2 Resin Enzyme Assay (Human IKK-2 Enzyme Assay)
Type: biochemical
Settings: not given
In short: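 C-terminally FLAG-tagged human IKK-2 homodimer, baculovirus-expressed in insect cells and anti-FLAG purified. Reaction mix: 5 μM biotinylated IκBα peptide (Ser32/Ser36 region), 1 μM ATP with [γ-33P]ATP, 2 mM MgCl2, 2 mM MnCl2, 10 mM NaF, 1 mM DTT, 25 mM HEPES pH 7.6. Incubated 30 min at 25 °C; IC50 derived.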

In the case of `NC(=O)Nc1cn(-c2cccc(-c3ccc(C(=O)N4CCC(=O)CC4)cc3)c2)nc1C(N)=O` [Example 90, 4-[(aminocarbonyl)amino]-1-{4′-[(4-oxopiperidin-1-yl)carbonyl]-1,1′-biphenyl-3-yl}-1H-pyrazole-3-carboxamide], the pIC50 was 5.55.

Same assay, conditions: human IKK-2, resin enzyme assay; read-out: IC50 (μM) hIKK-2

`N#C/C=C/c1cccc(-c2ccc(-n3cc(NC(N)=O)c(C(N)=O)n3)cc2)c1` [Example 32, 4-[(aminocarbonyl)amino]-1-{3′-[(E)-2-cyanovinyl]-1,1′-biphenyl-4-yl}-1H-pyrazole-3-carboxamide] and `CC(=O)Nc1ccc(-c2cccc(-n3cc(NC(N)=O)c(C(N)=O)n3)c2)cc1` [Example 55, 1-[4′-(acetylamino)-1,1′-biphenyl-3-yl]-4-[(aminocarbonyl)amino]-1H-pyrazole-3-carboxamide] are within 1.5-fold of each other in IC50: 1.16 µM for the first, 1.04 µM for the second.

First: NC(=O)Nc1cn(-c2ccc(S(=O)(=O)c3ccccc3O)cc2)nc1C(N)=O [Example 288, 1-(1-(4-(2-hydroxyphenylsulfonyl)phenyl)-3-carbamoyl-1H-pyrazol-4-yl)urea]
Second: NC(=O)Nc1cn(-c2ccc(S(=O)(=O)c3cccc(F)c3)cc2)nc1C(N)=O [Example 203, 1-(1-(4-(3-fluorophenylsulfonyl)phenyl)-3-carbamoyl-1H-pyrazol-4-yl)urea]
The IC50 of the first is 1.6-fold higher: 0.252 µM for the first, 0.153 µM for the second. The second is the more potent here.

First: NC(=O)Nc1cn(-c2ccc(-c3cccc(Cl)c3Cl)cc2)nc1C(N)=O [Example 133, 4-[(aminocarbonyl)amino]-1-(2′,3′-dichloro-1,1′-biphenyl-4-yl)-pyrazole-3-carboxamide]
Second: NC(=O)Nc1nn(-c2ccc(-c3ccc(Cl)cc3Cl)cc2)cc1C(N)=O [Example 134, 4-[(aminocarbonyl)amino]-1-(2′,4′-dichloro-1,1′-biphenyl-4-yl)-1-pyrazole-3-carboxamide]
The IC50 of the first is 2.4-fold lower: 1.63 µM for the first, 3.84 µM for the second.

Going from `NC(=O)Nc1cn(-c2cccc(-c3ccccc3-c3ccccc3)c2)nc1C(N)=O` [Example 371, 4-[(aminocarbonyl)amino]-1-(1,1′:2′,1″-terphenyl-3-yl)-1H-pyrazole-3-carboxamide] to `NC(=O)Nc1cn(-c2cccc(-c3ccccc3)c2)nc1C(N)=O` [Example 339, 4-[(aminocarbonyl)amino]-1-(1,1′-biphenyl-3-yl)-1H-pyrazole-3-carboxamide], the IC50 rises from 1.09 µM to > 20 µM. The first is the more potent here.

First: CN(Cc1ccc(F)cc1)C(=O)c1ccc(-c2ccc(-n3cc(NC(N)=O)c(C(N)=O)n3)cc2)cc1F [Example 158, 4-[(aminocarbonyl)amino]-1-(3′-fluoro-4′-{[(4-fluorobenzyl)(methyl)amino]carbonyl}-1,1′-biphenyl-4-yl)-1H-pyrazole-3-carboxamide]
Second: NC(=O)Nc1cn(-c2ccc(-c3ccc(C(=O)NCc4ccccc4)c(F)c3)cc2)nc1C(N)=O [Example 151, 4-[(aminocarbonyl)amino]-1-{4′-[(benzylamino)carbonyl]-3′-fluoro-1,1′-biphenyl-4-yl}-1H-pyrazole-3-carboxamide]
The IC50 of the first is 13-fold higher: 4.04 µM for the first, 0.31 µM for the second. The second is the more potent here.

First: NC(=O)Nc1cn(-c2ccc([S+]([O-])c3ccccc3O)cc2)nc1C(N)=O (centres unmarked) [Example 285, 1-(1-(4-(2-hydroxyphenylsulfinyl)phenyl)-3-carbamoyl-1H-pyrazol-4-yl)urea]
Second: NC(=O)Nc1cn(-c2ccc([S+]([O-])c3ccccc3F)cc2)nc1C(N)=O (centres unmarked) [Example 193, 1-(1-(4-(2-fluorophenylsulfinyl)phenyl)-3-carbamoyl-1H-pyrazol-4-yl)urea]
The IC50 of the first is 6.5-fold lower: 0.578 µM for the first, 3.75 µM for the second.

Going from `NC(=O)Nc1cn(-c2ccc(S(=O)(=O)c3ccc(F)cc3)cc2F)nc1C(N)=O` [Example 378, 1-(1-(4-(4-fluorophenylsulfonyl)-2-fluorophenyl)-3-carbamoyl-1H-pyrazol-4-yl)urea] to `Cc1cc(Sc2ccc(F)cc2)ccc1-n1cc(NC(N)=O)c(C(N)=O)n1` [Example 228, 4-[(aminocarbonyl)amino]-1-{4-[(4-fluorophenyl)thio]-2-methylphenyl}-1H-pyrazole-3-carboxamide], the IC50 rises from 0.315 µM to > 20 µM.

`NC(=O)Nc1cn(-c2cccc(Br)c2)nc1C(N)=O` [Example 20, 4-[(aminocarbonyl)amino]-1-(3-bromophenyl)-1H-pyrazole-3-carboxamide] and `NC(=O)Nc1cn(-c2ccc(F)cc2)nc1C(N)=O` [Example 212, 4-[(aminocarbonyl)amino]-1-(4-fluorophenyl)-1H-pyrazole-3-carboxamide] are within 1.5-fold of each other in IC50: 0.61 µM for the first, 0.844 µM for the second.

First: CCOc1cc(-n2cc(NC(N)=O)c(C(N)=O)n2)ccc1-c1cccc(OCC#N)c1 [Example 231, 4-[(aminocarbonyl)amino]-1-[3′-(cyanomethoxy)-2-ethoxy-1,1′-biphenyl-4-yl]-1H-pyrazole-3-carboxamide]
Second: Cc1cc(O)ccc1-c1cccc(-n2cc(NC(N)=O)c(C(N)=O)n2)c1 [Example 89, 4-[(aminocarbonyl)amino]-1-(4′-hydroxy-2′-methyl-1,1′-biphenyl-3-yl)-1H-pyrazole-3-carboxamide]
The IC50 of the first is 7-fold higher: 4.88 µM for the first, 0.7 µM for the second. The second is the more potent here.

First: NC(=O)Nc1cn(-c2ccc(-c3ccccc3O)cc2F)nc1C(N)=O [Example 249, 4-[(aminocarbonyl)amino]-1-(3-fluoro-2′-hydroxy-1,1′-biphenyl-4-yl)-1H-pyrazole-3-carboxamide]
Second: Cc1cc(-n2cc(NC(N)=O)c(C(N)=O)n2)ccc1-c1ccccc1O [Example 240, 1-(2′-Hydroxy-2-methyl-biphenyl-4-yl)-4-ureido-1H-pyrazole-3-carboxylic acid amide]
The IC50 of the first is 2.3-fold lower: 0.892 µM for the first, 2.02 µM for the second.

Compared with `NC(=O)Nc1cn(-c2cccc(-c3ccc4[nH]ccc4c3)c2)nc1C(N)=O` [Example 65, 4-[(aminocarbonyl)amino]-1-[3-(1H-indol-5-yl)phenyl]-1H-pyrazole-3-carboxamide], `NC(=O)Nc1cn(-c2cccc(-c3cc(Cl)cc(Cl)c3)c2)nc1C(N)=O` [Example 370, 4-[(aminocarbonyl)amino]-1-(3′,5′-dichloro-1,1′-biphenyl-3-yl)-1H-pyrazole-3-carboxamide] is higher in IC50: 1.8 µM for the first, > 20 µM for the second. The first is the more potent here.

First: CC1(C)OB(c2ccc(-n3cc(NC(N)=O)c(C(N)=O)n3)cc2)OC1(C)C [Example 260, 4-[(aminocarbonyl)amino]-1-[4-(4,4,5,5-tetramethyl-1,3,2-dioxaborolan-2-yl)phenyl]-1H-pyrazole-3-carboxamide]
Second: COC(=O)c1ccc(-n2cc(NC(N)=O)c(C(N)=O)n2)cc1 [Example 184, methyl 4-{3-(aminocarbonyl)-4-[(aminocarbonyl)amino]-1H-pyrazol-1-yl}benzoate]
The IC50 of the first is 11-fold lower: 0.512 µM for the first, 5.49 µM for the second. The first is the more potent here.

`CCCCc1ccc(-c2ccc(-n3cc(C(N)=O)c(NC(N)=O)n3)cc2)cc1` [Example 128] and `NC(=O)Nc1nn(-c2ccc(-c3cc(Cl)cc(Cl)c3)cc2)cc1C(N)=O` [Example 137] cannot be ordered by IC50: > 20 µM for the first, > 20 µM for the second.

First: COc1ccccc1-c1cccc(-n2cc(NC(N)=O)c(C(N)=O)n2)c1 [Example 88, 4-[(aminocarbonyl)amino]-1-(2′-methoxy-1,1′-biphenyl-3-yl)-1H-pyrazole-3-carboxamide]
Second: NC(=O)Nc1cn(-c2cccc(-c3ccccc3C(F)(F)F)c2)nc1C(N)=O [Example 366, 4-[(aminocarbonyl)amino]-1-[2′-(trifluoromeethyl)-1,1′-biphenyl-3-yl]-1H-pyrazole-3-carboxamide]
The IC50 of the first is lower: 3.2 µM for the first, > 20 µM for the second.

Compared with `NC(=O)Nc1cn(-c2ccc(-c3ccccc3O)c(Cl)c2)nc1C(N)=O` [Example 223, 4-[(aminocarbonyl)amino]-1-(2-chloro-2′-hydroxy-1,1′-biphenyl-4-yl)-1H-pyrazole-3-carboxamide], `NC(=O)Nc1cn(-c2ccc(Sc3ccc(Cl)cc3)cc2)nc1C(N)=O` [Example 290, 1-(1-(4-(4-chlorophenylthio)phenyl)-3-carbamoyl-1H-pyrazol-4-yl)urea] is 4-fold higher in IC50: 1.15 µM for the first, 4.56 µM for the second. The first is the more potent here.

`NC(=O)Nc1cn(-c2ccc(-c3cccc(OCc4cccnc4)c3)cc2)nc1C(N)=O` [Example 170, 4-[(aminocarbonyl)amino]-1-[3′-(pyridin-3-ylmethoxy)-1,1′-biphenyl-4-yl]-1H-pyrazole-3-carboxamide] and `COc1ccc(CNC(=O)CCc2cccc(-c3ccc(-n4cc(NC(N)=O)c(C(N)=O)n4)cc3)c2)c(OC)c1` [Example 380, 4-[(aminocarbonyl)amino]-1-(3′-{3-[(2,4-dimethoxybenzyl)amino]-3-oxopropyl}-1,1′-biphenyl-4-yl)-1H-pyrazole-3-carboxamide] are within 1.5-fold of each other in IC50: 1.58 µM for the first, 1.54 µM for the second.

`CCNC(=O)COc1ccc(F)cc1-c1ccc(-n2cc(NC(N)=O)c(C(N)=O)n2)cc1` [Example 257, 4-[(aminocarbonyl)amino]-1-{5′-fluoro-2′-[2-(ethylamino)-2-oxoethoxy]-1,1′-biphenyl-4-yl}-1H-pyrazole-3-carboxamide] and `CNC(=O)Nc1cn(-c2ccc(I)cc2)nc1C(N)=O` [Example 17, 1-(4-iodophenyl)-4-{[(methylamino)carbonyl]amino}-1H-pyrazole-3-carboxamide] are within 1.5-fold of each other in IC50: 1.35 µM for the first, 1.72 µM for the second.
